We go through eight molecules from article PMC12022901 (Frontiers in Pharmacology, 2025).

The conditions of series [1]: cited from earlier work.
On the set-up of series [2]: method as in Brown, 2014. As to conditions: ref Brown, 2014; cited from earlier work.
Series [3] relates to Coagulation markers (activated partial thromboplastin time and international normalized ratio). Briefly: Coagulation markers measured 3 h post dose. Format: in vivo, human (healthy volunteers).
The subject of the next series is CYP3A. As to the kind of experiment: CYP3A activity assessed by pharmacokinetics of microdosed midazolam (limited sampling, AUC2-4, eCLmet).
Series [4] in a line: Safety: adverse events in the trial cohorts. As to conditions: cohort of the named antiepileptic drug.
Series [5] can be described thus: Pharmacokinetics of factor Xa inhibitors at baseline and at pregabalin steady-state (open-label fixed-sequence DDI trial). As to conditions: human, in vivo, po, oral microdose cocktail, GM. An excerpt:
(§1) A p-value < 0.05 was considered significant.

Another series in a line: clinical. Particulars: for Vd/F: Vz/F; for half-life: t1/2, oral microdose cocktail; for exposure (AUC) during carbamazepine relative to baseline: microdosed FXaI.
Series [6] is described as follows: Pharmacokinetics of factor Xa inhibitors at baseline and at gabapentin steady-state (open-label fixed-sequence DDI trial). As to conditions: human, in vivo, po, oral microdose cocktail, GM.
From the text: as §1

The mark [7] stands for this setting: healthy volunteers, 7-d rifampin treatment, ref Mendell et al., 2015.
Where [8] appears, read: 180 min after edoxaban 60 mg alone.
The mark [9] stands for this setting: 180 min after edoxaban 60 mg with carbamazepine.
Setting [10] is: carbamazepine cohort, at carbamazepine steady-state, with edoxaban 60 mg.
Where [11] appears, read: carbamazepine cohort, at carbamazepine steady-state, with microdosed FXaI.
[12] abbreviates: carbamazepine cohort, baseline, with edoxaban 60 mg.
Setting [13] is: gabapentin cohort, at gabapentin steady-state, with edoxaban 60 mg.
Setting [14] is: gabapentin cohort, at gabapentin steady-state, with microdosed FXaI.
Where [15] appears, read: gabapentin cohort, baseline, with edoxaban 60 mg.
The mark [16] stands for this setting: pregabalin cohort, at pregabalin steady-state, with edoxaban 60 mg.
Where [17] appears, read: pregabalin cohort, at pregabalin steady-state, with microdosed FXaI.
Setting [18] is: pregabalin cohort, baseline, with edoxaban 60 mg.
[19] abbreviates: human, in vivo, po, oral microdose cocktail (25 µg apixaban, 50 µg edoxaban, 25 µg rivaroxaban), baseline, GM.
The mark [20] stands for this setting: human, in vivo, po, oral microdose cocktail, during carbamazepine steady-state, GM.
Where [21] appears, read: human, in vivo, po, oral microdose cocktail, baseline, GM.
The mark [22] stands for this setting: human, in vivo, po, oral microdose cocktail, at carbamazepine steady-state, GM.
The mark [23] stands for this setting: human, in vivo, po, at carbamazepine steady-state, GM.
Where [24] appears, read: human, in vivo, po, baseline, GM.
[25] abbreviates: oral microdose cocktail, at carbamazepine steady-state, GM.
Where [26] appears, read: oral microdose cocktail, baseline, GM.

Protocol for CYP3A: We simultaneously quantified the effect on CYP3A activity with an oral midazolam microdose (30 µg) (Figure 1).
Carbamazepine, gabapentin, and pregabalin were dosed to steady-state during a treatment period of 21 d for carbamazepine, 13 d for gabapentin, and 21 d for pregabalin, followed by the evaluation of their perpetrator effects. Steady-state was ensured until the last blood sample was drawn. Carbamazepine was titrated to a maximum dose of 200 mg twice a day, if possible. If this dose could not be reached due to adverse events, carbamazepine was titrated to therapeutic plasma concentrations (5–10 μg/mL), with the lower range chosen to ensure the safety of the participants. Gabapentin was administered at a dose of 400 mg three times a day and pregabalin at a dose of 300 mg twice a day. Single-dose pharmacokinetics of the microdosed FXaI were assessed at baseline and at the end of the above mentioned treatment period, at steady-state of the perpetrator.
All collected samples were processed within 20 min and plasma was stored at ≤ −20°C until analysis.
Non-compartmental analyses were conducted to assess the pharmacokinetics of the FXaI and midazolam utilizing Phoenix WinNonlin 8.3 (Certara, Inc., Princeton, NJ, United States). Cmax and the time to reach Cmax (tmax) were directly obtained from the concentration data. The area under the concentration-time curve from 0 to infinity ( AUC∞ ) was determined using the log-linear trapezoidal rule with extrapolation to infinity. The half-life (t1/2) was calculated as ln2/λz , with the elimination rate constant λz being estimated utilizing log-linear regression of the elimination phase. Apparent oral CL (CL/F) and volume of distribution (Vz/F) were calculated using standard equations for non-compartmental analysis.

Regarding `CN1CCc2nc(C(=O)N[C@@H]3C[C@@H](C(=O)O)CC[C@@H]3NC(=O)C(=O)Nc3ccc(Cl)cn3)sc2C1` [Edoxaban M-4], in series [1] (setting [7]), the AUC increase is 2.86 fold and the Cmax increase is 5.06 fold. Also, the “anticoagulant effects of M-4 and edoxaban” value in series [2] is reported as “comparable anticoagulant effects”.

In the case of `CN1CCc2nc(C(=O)N[C@@H]3C[C@@H](C(=O)N(C)C)CC[C@@H]3NC(=O)C(=O)Nc3ccc(Cl)cn3)sc2C1` [Edoxaban, edoxaban], in series [1] (co-administration with rifampin, ref Lixiana, 2017), the AUC reduction result is “up to 35%”. The entries for the “INR, mean” value in series [3] (setting [8]) and in series [3] (setting [9]) were 1.23 and 1.14, respectively. For the same molecule, the “aPTT, mean” value in series [3] (setting [8]) was found to be 33.63; in series [3] (setting [9]), 29.56. The “coagulation changes induced by edoxaban” value in series [3] (therapeutic dose or microdose, with gabapentin or pregabalin (data not shown)) is “not influenced”.

Take `Cc1ncc2n1-c1ccc(Cl)cc1C(c1ccccc1F)=NC2` [Midazolam, midazolam]: the eCLmet in the series with CYP3A (setting [10]) was 5654 mL/h; in the series on CYP3A (setting [11]) it was 5636 mL/h; in the series with CYP3A (setting [12]), 997 mL/h; with CYP3A (carbamazepine cohort, baseline, with microdosed FXaI), 1021 mL/h; in the series on CYP3A (setting [13]), 923 mL/h; with CYP3A (setting [14]), 957 mL/h. Also, the eCLmet worked out at 931 mL/h with CYP3A (setting [15]); 936 mL/h with CYP3A (gabapentin cohort, baseline, with microdosed FXaI); 1306 mL/h in the series with CYP3A (setting [16]); 1198 mL/h in the series with CYP3A (setting [17]); 1201 mL/h in the series with CYP3A (setting [18]); 1061 mL/h in the series with CYP3A (pregabalin cohort, baseline, with microdosed FXaI). For the same molecule, the “eCLmet GMR to baseline” value is 5.54 with CYP3A (setting [10]); 5.52 with CYP3A (setting [11]); 0.98 in the series with CYP3A (setting [12]); 0.99 in the series on CYP3A (setting [13]); 1.02 with CYP3A (setting [14]); 1.0 with CYP3A (setting [15]). The “decrease of midazolam AUC2-4” value with CYP3A (co-administration of carbamazepine) was determined as 82%. For the same molecule, the “effect on midazolam pharmacokinetics” value with CYP3A (gabapentin steady-state) and with CYP3A (pregabalin steady-state) was “did not alter” each time. The “eCLmet ratio to baseline” value was 1.23 in the series with CYP3A (setting [16]), 1.13 in the series with CYP3A (setting [17]) and 1.13 with CYP3A (setting [18]).

As for `NC(=O)N1c2ccccc2C=Cc2ccccc21` [carbamazepine], in series [4], the “adverse events deemed possibly related to the trial medication” value (“adverse events deemed possibly related” below) turned out to be 19; the adverse events overall stood at 29; the “participants with adverse events” value is given as 12 of 13; the “severe or serious adverse events” value was “none was serious, one was severe”.

Regarding `NCC1(CC(=O)O)CCCCC1` [gabapentin], in series [4], the “adverse events deemed possibly related” value was determined as 21, the adverse events overall is given as 39, the “participants with adverse events” value was 11 of 11 and the “severe or serious adverse events” value is on record as “none was severe or serious”.

As to `CC(C)C[C@H](CN)CC(=O)O` [pregabalin], in series [4], the “adverse events deemed possibly related” value is 25, the adverse events overall amounted to 37, the “participants with adverse events” value is 11 of 12 and the “severe or serious adverse events” value is reported as “none was severe or serious”.

`COc1ccc(-n2nc(C(N)=O)c3c2C(=O)N(c2ccc(N4CCCCC4=O)cc2)CC3)cc1` [µ-apixaban, apixaban]: the AUC(0-inf) in series [5] (before pregabalin) was 6.2 ng·h/mL; in series [5] (during pregabalin steady-state), 6.07 ng·h/mL; in the series “clinical” (setting [19]) it was 5.9 ng·h/mL; in “clinical” (setting [20]), 3.92 ng·h/mL; in series [6] (baseline) it was 6.95 ng·h/mL; in series [6] (during gabapentin steady-state), 6.48 ng·h/mL. Besides, the peak concentration (Cmax) was 0.782 ng/mL in series [5] (before pregabalin); 0.775 ng/mL in series [5] (during pregabalin steady-state); 0.719 ng/mL in the series “clinical” (setting [21]); 0.634 ng/mL in “clinical” (setting [20]); 0.822 ng/mL in series [6] (baseline); 0.775 ng/mL in series [6] (during gabapentin steady-state). For the same molecule, the reduction in exposure in series [1] (combined use with inducers of both CYP3A4 and P-gp such as carbamazepine, ref Eliquis, 2024) is on record as roughly 50%. Further, the Vd/F in “clinical” (setting [22]) and in “clinical” (setting [21]) was 36 L each time. The figures for the half-life in the series “clinical” (setting [23]) and in the series “clinical” (setting [24]) were 3.95 h and 5.97 h, respectively. Besides, the “exposure (AUC) during carbamazepine relative to baseline” value in “clinical” was determined as 66%. Moreover, the tmax was 1.6 h in the series “clinical” (oral microdose cocktail (solution), baseline, GM) and 1.72 h in “clinical” (setting [25]). The CL/F in the series “clinical” (setting [25]) worked out at 6.4 L/h; in the series “clinical” (setting [26]), 4.2 L/h.

With `O=C(NC[C@H]1CN(c2ccc(N3CCOCC3=O)cc2)C(=O)O1)c1ccc(Cl)s1` [µ-rivaroxaban, rivaroxaban], the AUC(0-inf) was 3.08 ng·h/mL in series [5] (before pregabalin); 3.03 ng·h/mL in series [5] (during pregabalin steady-state); 3.1 ng·h/mL in “clinical” (setting [19]); 1.73 ng·h/mL in “clinical” (setting [20]); 3.23 ng·h/mL in series [6] (baseline); 2.98 ng·h/mL in series [6] (during gabapentin steady-state). Moreover, the Cmax in series [5] (before pregabalin) turned out to be 0.783 ng/mL; in series [5] (during pregabalin steady-state), 0.744 ng/mL; in “clinical” (setting [21]), 0.695 ng/mL; in “clinical” (setting [20]) it was 0.524 ng/mL; in series [6] (baseline), 0.718 ng/mL; in series [6] (during gabapentin steady-state), 0.688 ng/mL. Further, the tmax in “clinical” (human, in vivo, po) was 0.817 h; in the series “clinical” (setting [25]), 0.817 h. Also, the Vd/F turned out to be 63 L in the series “clinical” (setting [22]) and 61 L in the series “clinical” (setting [21]). Besides, the figures for the half-life in “clinical” (setting [23]) and in the series “clinical” (setting [24]) were 3.02 h and 5.23 h, respectively. For the same molecule, in “clinical”, the “exposure (AUC) during carbamazepine relative to baseline” value is on record as 56%. In addition, the apparent clearance CL/F came to 14 L/h in “clinical” (setting [25]) and 8.0 L/h in the series “clinical” (setting [26]).
